Data: patent US20140350273A1, “PEDIATRIC USES OF CABAZITAXEL” (AVENTIS PHARMA S.A., priority 2012, published 2014)
Where two headings read alike, the source gives them in different places.

Test system: human Ewing's sarcoma DM101
Type: in vivo
Settings: for MTTE / T-C: volume endpoint 2000 mm^3; for tumor volume changes from baseline, Median +/− MAD: nude mice bearing DM101 Ewing's sarcoma; for Tumor Volume Data (Day 11) Median / ΔT/ΔC %: day 11
Procedure: The resultant solution contains 10 mg/mL of cabazitaxel. Stock solution of cabazitaxel was then diluted in 0.9% sodium chloride.
This efficacy may be quantified, for example, as changes in tumor volume for each treated (T) and control (C) group, which are calculated for each animal and each day by subtracting the tumor volume on the day of first treatment (staging day) from the tumor volume on the specified observation day. This allows calculating the tumor growth inhibition: ΔT/ΔC=(median delta T/median delta C)×100. Individual tumor volume changes from baseline are thereafter analyzed by a non-parametric two-way ANOVA-TYPE (with factors: group and repeated days) followed by a post-hoc contrasts analysis, with Bonferroni-Holm adjustment for multiplicity, comparing all treated groups to the control group. […] A probability less than 5% (p<0.05) was considered as significant.
Based on the National Cancer Institute (NCl) standards, a ΔT/ΔC≦40% is the minimal level required to declare activity.
This efficacy may also be quantified by the number of tumor regressions observed after therapy. Individual mice reporting a tumor volume ≦50% of the Day 0 measurement for two consecutive measurements over a seven day period were considered partial responders (PR). Individual mice lacking palpable tumors (<4×4 mm^2 for two consecutive measurements over a seven day period) were classified as complete responders (CR); a CR that persisted until study completion was considered a tumor-free survivor (TFS).
Efficacy could also be determined at study completion, using tumor growth delay (T-C) in days, which is calculated using the median time to endpoint (MTTE) value for each treatment (T) group versus control (C). A Log Rank multiple comparison test with Bonferroni-Holm adjustment for multiplicity was applied on individual TTE to compare the treated groups to the control group.
The animals subjected to the experiment are subcutaneously grafted unilaterally with approximately 30 mg of a tumor fragment from low passage pediatric patient-derived tumor xenografts. The animals are implanted with a human patient-derived pediatric tumor xenografted in immuno-compromised mice (Harlan; nu/nu). Several days post tumor implantation, mice are randomized according to their tumor burden to the different groups of treatments and controls. The agents are dosed intravenously at 5.8, 9.3, 15 or 24.2 mg/kg every 4 days for a total of 3 doses (q4d×3) to mice bearing a tumor burden at start of therapy (day 0) ranged from 125 to 250 mm^3.
Beginning Day 0, animals were observed daily and weighed twice weekly using a digital scale; data including individual and mean gram weights (Mean We±SD), mean percent weight change versus Day 0 were recorded for each group. Animal deaths were recorded daily and designated as drug-related (D), technical (T), tumor related (B), or unknown (U) based on weight loss and gross observation; single agent or combination groups reporting a mean >20% for a period of 7 days and/or >10% mortality were considered above the maximum tolerated dose (MTD) for that treatment on the evaluated regimen.
The selected tumor model, DM101, was a low passage patient-derived tumor xenograft derived from an Ewing's sarcoma taken from the bone of a patient.
The following end points were used: • Toxicity was declared at dosages inducing ≧20% body weight loss or ≧10% drug death; • Antitumor efficacy was determined by calculating the ΔT/ΔC value in percent on day 11 post treatment initiation, according to the above mentioned formula; • Individual tumor volume changes from baseline were analyzed by a non-parametric two-way ANOVA-TYPE (with factors: group and repeated day from 4 to 14) followed by a post-hoc contrasts analysis, with Bonferroni-Holm adjustment for multiplicity, comparing all treated groups to the control group on day 11. […] The volume endpoint for T-C calculations was chosen to be 2000 mm^3.

CC(=O)O[C@@]12CO[C@@H]1C[C@H](O)[C@@]1(C)C(=O)[C@H](O)C3=C(C)[C@@H](OC(=O)[C@H](O)[C@@H](NC(=O)OC(C)(C)C)c4ccccc4)C[C@@](O)([C@@H](OC(=O)c4ccccc4)[C@H]21)C3(C)C [Docetaxel, docetaxel]
#CR (5.8 mg/kg i.v./q4d × 3): 0/0/0
#PR (5.8 mg/kg i.v./q4d × 3): 0/0/0
#TFS (5.8 mg/kg i.v./q4d × 3): 0/0/0
Drug Deaths Total (5.8 mg/kg i.v./q4d × 3): 0
Weight Nadir % (5.8 mg/kg i.v./q4d × 3): −1%
Weight Nadir Day (5.8 mg/kg i.v./q4d × 3): 4
Tumor Volume Data (Day 11) Median (5.8 mg/kg i.v./q4d × 3): 366 mm^3
MTTE (5.8 mg/kg i.v./q4d × 3): 35 days
T-C (5.8 mg/kg i.v./q4d × 3): 18.1 days
tumor volume changes from baseline, Median +/− MAD (5.8 mg/kg, DAY 4): 51 +/− 38
tumor volume changes from baseline, Median +/− MAD (5.8 mg/kg, DAY 7): 98 +/− 79
tumor volume changes from baseline, Median +/− MAD (5.8 mg/kg, DAY 11): 202 +/− 183
tumor volume changes from baseline, Median +/− MAD (5.8 mg/kg, DAY 14): 446 +/− 393
tumor volume changes from baseline, Median +/− MAD (5.8 mg/kg, DAY 17): 640 +/− 621
tumor volume changes from baseline, Median +/− MAD (5.8 mg/kg, DAY 20): 813 +/− 756
tumor volume changes from baseline, Median +/− MAD (5.8 mg/kg, DAY 25): 766 +/− 478
tumor volume changes from baseline, Median +/− MAD (5.8 mg/kg, DAY 28): 1140 +/− 564
tumor volume changes from baseline, Median +/− MAD (5.8 mg/kg, DAY 32): 1694 +/− 281
#CR (9.3 mg/kg i.v./q4d × 3): 4
#PR (9.3 mg/kg i.v./q4d × 3): 4
#TFS (9.3 mg/kg i.v./q4d × 3): 1
Drug Deaths Total (9.3 mg/kg i.v./q4d × 3): 0
Weight Nadir % (9.3 mg/kg i.v./q4d × 3): −4%
Weight Nadir Day (9.3 mg/kg i.v./q4d × 3): 7
Tumor Volume Data (Day 11) Median (9.3 mg/kg i.v./q4d × 3): 505 mm^3
ΔT/ΔC % (9.3 mg/kg i.v./q4d × 3): 36.8%
MTTE (9.3 mg/kg i.v./q4d × 3): 30.5 days
T-C (9.3 mg/kg i.v./q4d × 3): 13.6 days
tumor volume changes from baseline, Median +/− MAD (9.3 mg/kg, DAY 4): 25 +/− 25
tumor volume changes from baseline, Median +/− MAD (9.3 mg/kg, DAY 7): 96 +/− 172
tumor volume changes from baseline, Median +/− MAD (9.3 mg/kg, DAY 11): 301 +/− 223
tumor volume changes from baseline, Median +/− MAD (9.3 mg/kg, DAY 14): 472 +/− 550
tumor volume changes from baseline, Median +/− MAD (9.3 mg/kg, DAY 17): 750 +/− 828
tumor volume changes from baseline, Median +/− MAD (9.3 mg/kg, DAY 20): 813 +/− 891
tumor volume changes from baseline, Median +/− MAD (9.3 mg/kg, DAY 25): −78 +/− 110
tumor volume changes from baseline, Median +/− MAD (9.3 mg/kg, DAY 28): −78 +/− 36
tumor volume changes from baseline, Median +/− MAD (9.3 mg/kg, DAY 32): −78 +/− 34
#CR (15 mg/kg i.v./q4d × 3): 4
#PR (15 mg/kg i.v./q4d × 3): 4
#TFS (15 mg/kg i.v./q4d × 3): 1
Drug Deaths Total (15 mg/kg i.v./q4d × 3): 0
Weight Nadir % (15 mg/kg i.v./q4d × 3): −6%
Weight Nadir Day (15 mg/kg i.v./q4d × 3): 14
Tumor Volume Data (Day 11) Median (15 mg/kg i.v./q4d × 3): 204 mm^3
ΔT/ΔC % (15 mg/kg i.v./q4d × 3): 8.9%
MTTE (15 mg/kg i.v./q4d × 3): 50.9 days
T-C (15 mg/kg i.v./q4d × 3): 34 days
CR (15 mg/kg q4d×3 IV): 4/9
TFS (15 mg/kg q4d×3 IV): 1/9
tumor volume changes from baseline, Median +/− MAD (15 mg/kg, DAY 4): 26 +/− 25
tumor volume changes from baseline, Median +/− MAD (15 mg/kg, DAY 7): 73 +/− 109
tumor volume changes from baseline, Median +/− MAD (15 mg/kg, DAY 11): 73 +/− 186
tumor volume changes from baseline, Median +/− MAD (15 mg/kg, DAY 14): 73 +/− 251
tumor volume changes from baseline, Median +/− MAD (15 mg/kg, DAY 17): 169 +/− 347
tumor volume changes from baseline, Median +/− MAD (15 mg/kg, DAY 20): 290 +/− 468
tumor volume changes from baseline, Median +/− MAD (15 mg/kg, DAY 25): −78 +/− 100
tumor volume changes from baseline, Median +/− MAD (15 mg/kg, DAY 28): −84.5 +/− 70
tumor volume changes from baseline, Median +/− MAD (15 mg/kg, DAY 32): −91 +/− 40
#CR (24.2 mg/kg i.v./q4d × 3): 3
#PR (24.2 mg/kg i.v./q4d × 3): 4
#TFS (24.2 mg/kg i.v./q4d × 3): 2
Drug Deaths Total (24.2 mg/kg i.v./q4d × 3): 0
Weight Nadir % (24.2 mg/kg i.v./q4d × 3): −17%
Weight Nadir Day (24.2 mg/kg i.v./q4d × 3): 14
Tumor Volume Data (Day 11) Median (24.2 mg/kg i.v./q4d × 3): 300 mm^3
ΔT/ΔC % (24.2 mg/kg i.v./q4d × 3): 14.9%
MTTE (24.2 mg/kg i.v./q4d × 3): 32.3 days
T-C (24.2 mg/kg i.v./q4d × 3): 15.4 days
CR (24.2 mg/kg q4d×3 IV): 3/9
TFS (24.2 mg/kg q4d×3 IV): 2/9
tumor volume changes from baseline, Median +/− MAD (24.2 mg/kg, DAY 4): 26 +/− 40
tumor volume changes from baseline, Median +/− MAD (24.2 mg/kg, DAY 7): 122
tumor volume changes from baseline, Median +/− MAD (24.2 mg/kg, DAY 11): 122
tumor volume changes from baseline, Median +/− MAD (24.2 mg/kg, DAY 14): 122
tumor volume changes from baseline, Median +/− MAD (24.2 mg/kg, DAY 17): 122
tumor volume changes from baseline, Median +/− MAD (24.2 mg/kg, DAY 20): 394
tumor volume changes from baseline, Median +/− MAD (24.2 mg/kg, DAY 25): 351.5
tumor volume changes from baseline, Median +/− MAD (24.2 mg/kg, DAY 28): 681
tumor volume changes from baseline, Median +/− MAD (24.2 mg/kg, DAY 32): 254
